Experimental data from patent US20240294478A1, “ANTI-CANCER COMPOUNDS AND METHODS OF USE” (YALE UNIVERSITY, priority 2021, published 2024).

Columns and labels:
MGMT−/MMR− cells = assay: IR alkaline comet assay, LN229 MGMT-/MMR-, time course; assay type: cell-based, human; conditions: time points 2-24 h
Method: The IR alkaline comet assay, adapted for ICL detection was performed to determine if ICLs were formed in MGMT-cells treated with KL-50. In this assay, cells were sequentially exposed to genotoxins and ionizing radiation, and then analyzed by single cell alkaline gel electrophoresis. Attenuation of the IR-induced comet tail is indicative of ICL formation.
IR Alkaline Comet Assay. This assay was performed utilizing the CometAssay™ Kit (Trevigen) according to the alkaline assay protocol, with the addition of slide irradiation post-lysis. Cells were trypsinized, washed with 1×PBS, added to melted Comet LMAgarose (Trevigen), and spread on Trevigen CometSlides at a density of 1000 cells per sample in 50 μL. Lysis solution (Trevigen) with 10% DMSO was added overnight at 4° C. Slides were removed from lysis buffer and irradiated to 0 or 10 Gy using an XRAD 320 X-Ray System (Precision X-Ray) at 320 kV, 12.5 mA, and 50.0 cm SSD, with a 2 mm Al filter and 20 cm×20 cm collimator. Slides were then placed in alkaline buffer (200 mM NaOH, 1 mM EDTA) for 45 min, followed by electrophoresis in 850 mL alkaline buffer for 45 min at 4° C. Slides were washed and stained with SYBR gold (Invitrogen) per Trevigen assay protocol. Slides were imaged on a Cytation 3 imaging reader (BioTek), and comets were analyzed using CometScore 2.0 software (TriTek).

[1] = system: genomic DNA isolated from LN229 MGMT−/MMR+ cells; assay: Genomic DNA denaturing gel electrophoresis; assay type: cell-based, human; conditions: KL-50 200 μM
Method: Genomic DNA Denaturing Gel Electrophoresis. Cells were trypsinized, washed with 1×PBS, and stored at −80° C. prior to processing. Genomic DNA was extracted with the DNeasy Blood & Tissue Kit (Qiagen) per kit protocol. A 0.7% agarose gel was prepared in 100 mM NaCl-2 mM EDTA (pH 8) and soaked in 40 mM NaOH-1 mM EDTA running buffer for 2 h. Genomic DNA (400 ng/well) was then loaded in 1×BlueJuice loading buffer (Invitrogen) and subjected to electrophoresis at 2 V/cm for 30 min, followed by 3 V/cm for 2 h. The gel was neutralized in 150 mM NaCl-100 mM Tris (pH 7.4) for 30 min, twice, and then stained with 1×SYBR Gold in 150 mM NaCl-100 mM Tris (pH 7.4) for 90 min. Imaging was performed on a ChemiDoc XRS+ Molecular Imager (Bio-Rad).

[2] = system: ATR-CHK1 and ATM-CHK2 signaling axes in LN229 MGMT+/−, MMR+/− cells; assay: Western blotting of CHK1 and CHK2 phosphorylation; assay type: cell-based, human; conditions: 20 μM, 24 or 48 h
Method: FIGS. 5A-5K: KL-50 activates DNA damage response pathways and cycle arrest in MGMT-cells, independent of MMR, and induces sensitivity in cells deficient in ICL or HR repair. […] Columns, mean; error bars, SD; n 5 technical replicates. FIGS. 5D-5K: KL-50 induces activation of the ATR-CHK1 and ATM-CHK2 signaling axes and delayed DNA repair foci formation in MGMT-deficient cells, independent of MMR status. […] Treatment with 1 μM doxorubicin for 24 h (Doxo) served as a positive control for p-CHK1 activation. […] Points, mean % cells with >10 foci; error bars, SD; n >5 technical replicates. […] Points, % cells with 10 foci, n>250 cells per condition.
A prior finding that the ATR-CHK1 signaling axis is activated in response to TMZ-induced replication stress in MGMT-deficient cells prompted analysis of the phosphorylation status of CHK1 and CHK2 in LN229 MGMT+/− and MMR+/−cells. […] Analysis of foci formation of the DDR factors phospho-SER139-H2AX (yH2AX), p53 binding protein 1 (53BP1), and phospho-SER33-RPA2 (pRPA) over the period of 2 to 48 h (FIGS. 5A-5C and FIGS. 5D-5I). […] However, these foci dissipate at later timepoints (72-96 h; FIGS. 5J-5K), and they are not associated with appreciable cellular toxicity (as shown earlier in FIGS. 2A and 2B).

[3] = system: LN229 MGMT−/MMR+ flank tumors; assay: Murine flank tumor model, LN229 MGMT-/MMR+; assay type: in vivo, mouse; conditions: 5 mg/kg MWF x 3 weeks, P.O.
Excerpt: FIGS. 9A-91: KL-50 is safe and efficacious on both MGMT−/MMR+ and MGMT−/MMR-flank tumors over a wide range of treatment regimens and conditions. […] (FIG. 9C) Mean body weight of mice during LN229 flank tumor experiments. (FIG. 9D) Kaplan-Meier analysis of LN229 MGMT−/MMR− xenograft flank tumor-bearing mice to determine survival rate based on death, removal from study if mouse body weight loss exceeded 20% of initial body weight, or if tumor volume exceeded 2000 mm^3. […] (FIGS. 9H-91) Xenograft LN229 MGMT−/MMR+ and LN229 MGMT−/MSH6—flank tumors with a larger average starting tumor size of −400 mm^3 and −350 mm^3 respectively, treated with 3 weekly cycles of P.O administration of 10% cyclodextrin (n=4) or KL-50 (n=4, 3 cycles of 25 mg/kg on Monday, Wednesday, and Friday). The study period was limited by control groups which had to be euthanized for exceeding the ethical maximum allowed tumor size, thus ending the study. In all panels, points, mean; error bars, SEM; *, P<0.05; **, P<0.01; ***, P<0.001; ****, P<0.0001; ns, not significant.
Mouse Protocols for Flank Studies. A mouse tumor model was established by subcutaneously implanting human LN229 (MGMT−/MMR+) or LN229 (MGMT−/MMR−) cells. […] During the final centrifugation, viability was determined using trypan blue exclusion. […]

SMILES	DNA damage in unirradiated samples (MGMT−/MMR− cells)	DNA mobility after IR, rate of ICL formation (MGMT−/MMR− cells)	crosslinked genomic DNA (ICL induction) [1]	CHK1 and CHK2 phosphorylation [2]	tumor growth, MGMT−/MMR+ flank tumors [3]
NC(=O)c1ncn2c(=O)n(CCF)nnc12 [KL-50]	maximal damage at 2 h	time-dependent decrease in DNA mobility	presence of crosslinked DNA	induced CHK1 and CHK2 phosphorylation in MGMT-cells regardless of MMR status	statistically non-inferior to TMZ
Cn1nnc2c(C(N)=O)ncn2c1=O [TMZ, 4-methyl-5-oxo-2,3,4,6,8-pentazabicyclo[4.3.0]nona-2,7,9-triene-9-carboxamide, reference compound]	maximal damage at 2 h	did not induce a statistically significant decrease in DNA migration within 24 h	no evidence of ICL induction	only induced phospho-CHK1 and —CHK2 in MGMT−/MMR+cells	suppressed tumor growth
